According to patent US6703380B2, “Prevention of cancer” (Colotech A/S, priority 1999, dated 2004):
Several values for one entry are separate records, joined by “and”; a condition that tells them apart may be missing. Identical values can stand only once.

How the values were obtained:
[1] = following 3 months of therapy; cited from earlier work
solid, human xenografts = settings: in vivo (mice); cited from earlier work
[2] = tested on: human colon cancer cell lines (LoVo); settings: in vitro, including CEA-producing cell lines; cited from earlier work
[3] = tested on: stroke, acute myocardial infarction and/or cardiovascular death; settings: low-dose; cited from earlier work
[4] = tested on: aberrant crypt foci (ACF) of the colon/rectum in AOM-induced rats; assay: ACF of the colon/rectum in AOM-induced rats, Example 2; format: in vivo, rat
Description: The in vivo study of the effect on prevention of CRC in AOM (Azoxymethane) induced rats The rats are induced s.c 1× week in 2 weeks with an AOM solution. The effect of the specific treatment is evaluated due to the number of aberrant crypt foci (ACF) of the colon/rectum in the AOM-induced rats. The aberrant crypt score is evaluated by stereomicroscopy (40×) upon staining with Giemsa-solution (6 ml conc. Giemsa in 50 ml of PBS, pH 7.1). The crypt size is categorised as small, medium, large and X-large. The number of animals is 80 with 16 in each group. The medicaments are administered with the food. The section is 18 weeks from the first dosage. […] Data for weight, food and water are registered and analysed “Small” in the third column is the sum of small and medium of the first column “Large” in the third column is the sum of large and x-large the of second column

[5] = count per animal, listed as Asp 200

Structure (SMILES): O=C(O)c1cc(/N=N/c2ccc(S(=O)(=O)Nc3ccccn3)cc2)ccc1O [sulphasalazine]
- Relative risk reduction [1]: 0.38 (0.2 to 0.7)

Structure (SMILES): C=C1/C(=C\C=C2/CCC[C@]3(C)[C@@H]([C@H](C)CCCC(C)(C)O)CC[C@@H]23)C[C@@H](O)C[C@@H]1O [1,25DHC, 1,25 dihydroxycholecalciferol]
- Growth of solid, human xenografts (solid, human xenografts): suppress growth
- Growth of human colon cancer cell lines [2]: inhibits the growth

Structure (SMILES): CC(=O)Oc1ccccc1C(=O)O [ASA, acetylsalicylic acid]
- Relative risk-reduction in relation to stroke, acute myocardial infarction and/or cardiovascular death [3]: approx. 25%
- Effect on (large) ACF, in words ([4]; aspirin 200 ppm without or with Ca and 1,25 DHC): without effect
- Small ACF, individual rat ([4]; count per animal, section 18 weeks from first dosage, listed as Asp 200): 92 and 87 and 20 and 51 and 31 and 82 and 73 (2×) and 44 (2×) and 55 and 47 and 40 and 22 and 46 and 63
- Large (sum of large and x-large) ACF, individual rat [4, 5]: 15 and 9 and 2 (3×) and 8 and 5 (2×) and 3 (3×) and 6 and 1 (2×) and 7 and 4
- Large ACF, individual rat [4, 5]: 13 and 8 and 2 (3×) and 5 (4×) and 3 (3×) and 1 (2×) and 6 and 4
- Medium ACF, individual rat [4, 5]: 74 and 45 and 8 and 34 and 10 and 51 and 35 and 31 and 22 and 49 and 21 and 9 and 26 and 47 and 18 and 50
- Small (sum of small and medium) ACF, individual rat [4, 5]: 166 and 132 and 28 and 85 and 41 and 133 and 108 and 75 and 77 and 96 and 61 and 31 and 72 and 120 and 62 and 113
- Total ACF, individual rat [4, 5]: 181 and 141 and 30 and 93 and 43 and 138 and 111 and 78 and 80 and 102 and 62 and 33 and 79 and 125 and 66 and 114
- X-Large ACF, individual rat [4, 5]: 2 and 1 (3×) and 0 (11×) and 3
- Large (sum of large and x-large) ACF, Mean ([4]; group mean): 4.75
- Large ACF, Mean ([4]; group mean): 4.25
- Medium ACF, Mean ([4]; group mean): 33.13
- Small (sum of small and medium) ACF, Mean ([4]; group mean): 87.50
- Small ACF, Mean ([4]; group mean): 54.38
- Total ACF, Mean ([4]; group mean): 92.25
- X-Large ACF, Mean ([4]; group mean): 0.50
